The values that follow come from ChEMBL document CHEMBL4007424, “Design and Synthesis of Enantiomerically Pure Decahydroquinoxalines as Potent and Selective κ-Opioid Receptor Agonists with Anti-Inflammatory Activity in Vivo” (J Med Chem, 2017).

SMILES strings stand for the structures. pEC50, pKi: −log10 of the molar value. The source made the active and inactive calls. The calls are words filed in the database; no cut-off is given here.

Target in one series: not listed separately
Briefly: Displacement of [3H]DPDPE from delta-type opioid receptor in guinea pig brain membranes after 120 mins by solid scintillation counting. The series is classed as cell membranes, Cavia porcellus, Membrane.
Settings: not given
(In general: Loss of bound radioactivity is the signal in a displacement assay; it reports binding, not function.)
By pKi is commonly meant −log10 of the Ki, conventionally taken in molar units. In the case of `O=C(Cc1ccc(Cl)c(F)c1)N1CCN(S(=O)(=O)Cc2ccon2)[C@H]2CCC[C@H](N3CC[C@H](O)C3)[C@H]21`, the pKi is 5.86.

In turn, `COC(=O)N1CCN(C(=O)Cc2ccc(F)c(F)c2)[C@@H]2[C@@H](N3CC[C@H](O)C3)CCC[C@@H]21` showed a pKi of 6.21.

In turn, `CNC(=O)C(=O)N1CCN(C(=O)Cc2ccc(Cl)c(Cl)c2)[C@@H]2[C@@H](N3CCCC3)CCC[C@@H]21` had a pKi of 6.17.

A further series concerns Mus musculus. Briefly: Antiinflammatory activity in oxazolone-induced delayed type hypersensitivity BALB/c mouse model assessed as reduction in ear swelling at 2.5 mg applied topically on ear administered 3 hrs prior to oxazolone challenge on day 7 to 12 post sensitization followed by re-administration of compound on day 13 to 18 without oxazolone challenge measured daily prior to treatment from day 7 to 19. The format is functional.
Settings: not given
On to `CNC(=O)C(=O)N1CCN(C(=O)Cc2ccc(Cl)c(Cl)c2)[C@@H]2[C@@H](N3CCCC3)CCC[C@@H]21`, for which the result was Active.

System in the next series: not listed separately
Briefly: Ratio of drug level in brain to plasma in Wistar Han rat at 1 mg/kg, iv after 1 hr. The series is classed as ADME, organism-based. The conditions noted are these: read-out: BPR.
Turning to `COC(=O)N1CCN(C(=O)Cc2ccc(Cl)c(Cl)c2)[C@@H]2[C@@H](N3CC[C@@H](O)C3)CCC[C@@H]21.Cl`, the Kp at 1 h is 0.07.

A further series deals with Rattus norvegicus. As to the kind of experiment: Toxicity in Wistar Han rat assessed as clinical signs changes at 1 mg/kg, iv after 1 hr. The note with it: in vivo. The format is organism-based.
As for `COC(=O)N1CCN(C(=O)Cc2ccc(Cl)c(Cl)c2)[C@@H]2[C@@H](N3CC[C@@H](O)C3)CCC[C@@H]21.Cl`, the Activity result is “Non-Toxic”.

System in another series: not listed separately
As to the kind of experiment: Lipophilicity, logD of the compound at pH 7.4 by LC/MS analysis. The format is physicochemical. The conditions noted are these: buffer.
In general, logD refers to the decadic logarithm of the distribution of all forms, ionised or not, between an organic phase and buffer at a given pH. Lower therefore signals lower lipophilicity. Take `O=C(Cc1ccc(Cl)c(F)c1)N1CCN(S(=O)(=O)Cc2ccon2)[C@H]2CCC[C@H](N3CC[C@H](O)C3)[C@H]21`: the logD stood at 1.4.

Turning to `COC(=O)N1CCN(C(=O)Cc2ccc(F)c(F)c2)[C@@H]2[C@@H](N3CC[C@H](O)C3)CCC[C@@H]21`, the logD was determined as 0.77.

The molecule `CNC(=O)C(=O)N1CCN(C(=O)Cc2ccc(Cl)c(Cl)c2)[C@@H]2[C@@H](N3CCCC3)CCC[C@@H]21` gave a logD of 1.71.

The target in the next series is Mu-type opioid receptor (Cavia porcellus) (UniProt P97266). As to the kind of experiment: Displacement of [3H]DAMGO from mu-type opioid receptor in guinea pig brain membranes at 1 uM after 120 mins by solid scintillation counting. The series is classed as cell membranes. The note with it: Membrane.
Chain of Mu-type opioid receptor (Cavia porcellus) (P97266 whole entry): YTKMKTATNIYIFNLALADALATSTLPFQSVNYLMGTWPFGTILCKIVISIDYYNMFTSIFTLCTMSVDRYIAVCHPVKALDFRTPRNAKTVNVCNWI
By inhibition is commonly meant the share of the control response that was lost under treatment. Higher therefore signals a response far below the control. `O=C(Cc1ccc(Cl)c(F)c1)N1CCN(S(=O)(=O)Cc2ccon2)[C@H]2CCC[C@H](N3CC[C@H](O)C3)[C@H]21`: the inhibition came to 6%.

`CNC(=O)C(=O)N1CCN(C(=O)Cc2ccc(Cl)c(Cl)c2)[C@@H]2[C@@H](N3CCCC3)CCC[C@@H]21`: the inhibition stood at 12%.

The next series deals with Mus musculus. Briefly: Antiinflammatory activity in arachidonic acid-induced ear dermatitis ICR mouse model assessed as reduction in ear swelling at 0.1 mg administered twice tropically 30 mins prior and 15 mins after arachidonic acid addition measured 60 mins post arachidonic acid challenge relative to control.
Settings: not given
The series is classed as functional.
Take `COC(=O)N1CCN(C(=O)Cc2ccc(F)c(F)c2)[C@@H]2[C@@H](N3CC[C@H](O)C3)CCC[C@@H]21`: the “inhibition (INH)” value is 1%.

With `CNC(=O)C(=O)N1CCN(C(=O)Cc2ccc(Cl)c(Cl)c2)[C@@H]2[C@@H](N3CCCC3)CCC[C@@H]21`, the “inhibition (INH)” value stood at 21%.

A further series deals with Mus musculus. Briefly: Antiinflammatory activity in arachidonic acid-induced ear dermatitis ICR mouse model assessed as reduction in ear swelling at 0.3 mg administered twice tropically 30 mins prior and 15 mins after arachidonic acid addition measured 60 mins post arachidonic acid challenge relative to control. The format is functional.
Settings: not given
In the case of `COC(=O)N1CCN(C(=O)Cc2ccc(F)c(F)c2)[C@@H]2[C@@H](N3CC[C@H](O)C3)CCC[C@@H]21`, the “inhibition (INH)” value is listed as -20%.

Regarding `CNC(=O)C(=O)N1CCN(C(=O)Cc2ccc(Cl)c(Cl)c2)[C@@H]2[C@@H](N3CCCC3)CCC[C@@H]21`, the “inhibition (INH)” value amounted to 30%.

The next series deals with Kappa-type opioid receptor (Cavia porcellus, UniProt P41144). Briefly: Displacement of [3H]U-69,593 from kappa-type opioid receptor in guinea pig brain membranes after 120 mins by solid scintillation counting. The format is cell membranes, Membrane.
Chain of Kappa-type opioid receptor (Cavia porcellus, UniProt P41144) (P41144 whole entry): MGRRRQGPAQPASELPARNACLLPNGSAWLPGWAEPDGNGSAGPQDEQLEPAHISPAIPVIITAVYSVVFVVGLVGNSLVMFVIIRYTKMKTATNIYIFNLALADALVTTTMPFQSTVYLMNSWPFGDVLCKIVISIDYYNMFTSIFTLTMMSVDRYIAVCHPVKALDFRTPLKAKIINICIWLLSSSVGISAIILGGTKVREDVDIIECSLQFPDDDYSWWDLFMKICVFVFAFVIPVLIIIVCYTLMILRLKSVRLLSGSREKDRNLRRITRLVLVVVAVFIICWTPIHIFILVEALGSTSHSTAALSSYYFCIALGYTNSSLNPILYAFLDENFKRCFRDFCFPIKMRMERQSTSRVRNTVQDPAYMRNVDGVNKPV
Settings: not given
In the case of `O=C(Cc1ccc(Cl)c(F)c1)N1CCN(S(=O)(=O)Cc2ccon2)[C@H]2CCC[C@H](N3CC[C@H](O)C3)[C@H]21`, the pKi was 9.09.

Turning to `COC(=O)N1CCN(C(=O)Cc2ccc(F)c(F)c2)[C@@H]2[C@@H](N3CC[C@H](O)C3)CCC[C@@H]21`, the pKi is 8.92.

In the case of `CNC(=O)C(=O)N1CCN(C(=O)Cc2ccc(Cl)c(Cl)c2)[C@@H]2[C@@H](N3CCCC3)CCC[C@@H]21`, the pKi was 8.82.

For another series, the target named is T1, Kappa-type opioid receptor (Homo sapiens, UniProt P41145). Briefly: Agonist activity at recombinant human kappa-type opioid receptor expressed in HEK293 cells at 1 uM after 30 mins by [35S]GTPgammaS binding assay. The series is classed as functional, cell-based.
T1 sequence (P41145 whole entry): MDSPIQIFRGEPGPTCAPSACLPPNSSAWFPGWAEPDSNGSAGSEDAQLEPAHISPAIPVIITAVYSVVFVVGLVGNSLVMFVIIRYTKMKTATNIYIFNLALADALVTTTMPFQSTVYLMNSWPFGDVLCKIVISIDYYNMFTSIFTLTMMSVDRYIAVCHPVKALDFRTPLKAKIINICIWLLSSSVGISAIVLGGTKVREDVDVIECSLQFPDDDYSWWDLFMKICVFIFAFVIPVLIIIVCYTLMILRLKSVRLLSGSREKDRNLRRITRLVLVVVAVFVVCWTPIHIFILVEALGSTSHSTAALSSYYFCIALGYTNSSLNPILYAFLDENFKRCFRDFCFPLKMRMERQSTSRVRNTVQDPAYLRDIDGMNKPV
Settings: not given
Take `O=C(Cc1ccc(Cl)c(F)c1)N1CCN(S(=O)(=O)Cc2ccon2)[C@H]2CCC[C@H](N3CC[C@H](O)C3)[C@H]21`: the Activity came out at 105%.

Consider `CNC(=O)C(=O)N1CCN(C(=O)Cc2ccc(Cl)c(Cl)c2)[C@@H]2[C@@H](N3CCCC3)CCC[C@@H]21`, for which the Activity amounted to 104%.

In another series the test system is Mus musculus. Briefly: Antiinflammatory activity in arachidonic acid-induced ear dermatitis ICR mouse model assessed as reduction in ear swelling at 3 mg administered twice tropically 30 mins prior and 15 mins after arachidonic acid addition measured 60 mins post arachidonic acid challenge relative to control. The format is functional.
Settings: not given
In the case of `COC(=O)N1CCN(C(=O)Cc2ccc(F)c(F)c2)[C@@H]2[C@@H](N3CC[C@H](O)C3)CCC[C@@H]21`, the “inhibition (INH)” value was 64%.

Consider `CNC(=O)C(=O)N1CCN(C(=O)Cc2ccc(Cl)c(Cl)c2)[C@@H]2[C@@H](N3CCCC3)CCC[C@@H]21`, for which the “inhibition (INH)” value is on record as 65%.

In another series the test system is Mus musculus. Briefly: Antiinflammatory activity in arachidonic acid-induced ear dermatitis ICR mouse model assessed as reduction in ear swelling at 1 mg administered twice tropically 30 mins prior and 15 mins after arachidonic acid addition measured 60 mins post arachidonic acid challenge relative to control.
Settings: not given
The series is classed as functional.
Take `COC(=O)N1CCN(C(=O)Cc2ccc(F)c(F)c2)[C@@H]2[C@@H](N3CC[C@H](O)C3)CCC[C@@H]21`: the “inhibition (INH)” value is -11%.

For `CNC(=O)C(=O)N1CCN(C(=O)Cc2ccc(Cl)c(Cl)c2)[C@@H]2[C@@H](N3CCCC3)CCC[C@@H]21`, the “inhibition (INH)” value is 53%.

For the next series, the species on record is Sus scrofa. Briefly: Displacement of [3H]-(+)-MK 801 from PCP binding site of NMDA receptor in pig brain cortex membranes at 10 uM after 120 mins by solid scintillation counting.
Settings: not given
The format is cell membranes.
In the case of `O=C(Cc1ccc(Cl)c(F)c1)N1CCN(S(=O)(=O)Cc2ccon2)[C@H]2CCC[C@H](N3CC[C@H](O)C3)[C@H]21`, the inhibition is 13%.

Take `CNC(=O)C(=O)N1CCN(C(=O)Cc2ccc(Cl)c(Cl)c2)[C@@H]2[C@@H](N3CCCC3)CCC[C@@H]21`: the inhibition stood at 8%.

System in the next series: not listed separately
Briefly: Plasma concentration in Wistar Han rat at 1 mg/kg, iv measured 1 hr post compound administration. The format is ADME, organism-based.
Settings: not given
In turn, `COC(=O)N1CCN(C(=O)Cc2ccc(Cl)c(Cl)c2)[C@@H]2[C@@H](N3CC[C@@H](O)C3)CCC[C@@H]21.Cl` yielded a concentration at 1 h of 115 ng/mL.

System in another series: not listed separately
Briefly: Drug level in Wistar Han rat brain at 1 mg/kg, iv measured 1 hr post compound administration. The series is classed as ADME, organism-based. The note with it: Wistar Han, brain, read-out: Drug uptake.
As to `COC(=O)N1CCN(C(=O)Cc2ccc(Cl)c(Cl)c2)[C@@H]2[C@@H](N3CC[C@@H](O)C3)CCC[C@@H]21.Cl`, the concentration at 1 h turned out to be 7.9 ng/g.

The species named for another series is Rattus norvegicus. Briefly: Displacement of [3H]-DTG from sigma 2 receptor in rat liver membranes at 1 uM after 120 mins by scintillation counting. The note with it: Membrane. The format is cell membranes.
Regarding `O=C(Cc1ccc(Cl)c(F)c1)N1CCN(S(=O)(=O)Cc2ccon2)[C@H]2CCC[C@H](N3CC[C@H](O)C3)[C@H]21`, the inhibition was 7%.

`CNC(=O)C(=O)N1CCN(C(=O)Cc2ccc(Cl)c(Cl)c2)[C@@H]2[C@@H](N3CCCC3)CCC[C@@H]21` showed an inhibition of 4%.

System in a further series: not listed separately
Briefly: Plasma concentration in Wistar Han rat at 1 mg/kg, iv measured 0.25 hrs post compound administration. The series is classed as ADME, organism-based.
Settings: not given
Consider `COC(=O)N1CCN(C(=O)Cc2ccc(Cl)c(Cl)c2)[C@@H]2[C@@H](N3CC[C@@H](O)C3)CCC[C@@H]21.Cl`, for which the concentration at 0.25 h came out at 454 ng/mL.

In another series the test system is Mus musculus. Briefly: Antiinflammatory activity in oxazolone-induced delayed type hypersensitivity BALB/c mouse model assessed as reduction in ear weight at 2.5 mg applied topically on ear administered 3 hrs prior to oxazolone challenge on day 7 to 12 post sensitization followed by re-administration of compound on day 13 to 18 without oxazolone challenge measured on day 19. The series is classed as functional.
Settings: not given
Regarding `CNC(=O)C(=O)N1CCN(C(=O)Cc2ccc(Cl)c(Cl)c2)[C@@H]2[C@@H](N3CCCC3)CCC[C@@H]21`, the outcome was Active.

The next series has as its target T1, Kappa-type opioid receptor. Briefly: Agonist activity at recombinant human kappa-type opioid receptor expressed in HEK293 cells after 30 mins by [35S]GTPgammaS binding assay. The series is classed as functional, cell-based.
Settings: not given
For orientation: GTPγS resists hydrolysis and so accumulates on activated G proteins.
One may read the pEC50 as −log10 of the EC50, conventionally taken in molar units. As for `O=C(Cc1ccc(Cl)c(F)c1)N1CCN(S(=O)(=O)Cc2ccon2)[C@H]2CCC[C@H](N3CC[C@H](O)C3)[C@H]21`, the pEC50 was 8.85.

As to `COC(=O)N1CCN(C(=O)Cc2ccc(F)c(F)c2)[C@@H]2[C@@H](N3CC[C@H](O)C3)CCC[C@@H]21`, the pEC50 is 7.96.

For `CNC(=O)C(=O)N1CCN(C(=O)Cc2ccc(Cl)c(Cl)c2)[C@@H]2[C@@H](N3CCCC3)CCC[C@@H]21`, the pEC50 was 8.09.

The target of another series is Sigma non-opioid intracellular receptor 1 (Cavia porcellus) (UniProt Q60492). Briefly: Displacement of [3H]-(+)-pentazocine from sigma1-type […] receptor in guinea pig cortex membranes at 1 uM after 120 mins by solid scintillation counting. The format is cell membranes.
Chain of Sigma non-opioid intracellular receptor 1 (Cavia porcellus) (Q60492 whole entry): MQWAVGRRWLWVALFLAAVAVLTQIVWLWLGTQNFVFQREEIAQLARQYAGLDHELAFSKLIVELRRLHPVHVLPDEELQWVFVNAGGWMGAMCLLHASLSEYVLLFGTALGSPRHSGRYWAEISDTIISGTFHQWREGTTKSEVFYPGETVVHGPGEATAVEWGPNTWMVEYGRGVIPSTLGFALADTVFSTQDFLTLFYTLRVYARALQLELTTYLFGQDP
Settings: not given
On to `O=C(Cc1ccc(Cl)c(F)c1)N1CCN(S(=O)(=O)Cc2ccon2)[C@H]2CCC[C@H](N3CC[C@H](O)C3)[C@H]21`, for which the inhibition is 0%.

The molecule `CNC(=O)C(=O)N1CCN(C(=O)Cc2ccc(Cl)c(Cl)c2)[C@@H]2[C@@H](N3CCCC3)CCC[C@@H]21` came in with an inhibition of 0%.
